Laboratory results from ChEMBL document CHEMBL6153126, “Design, Synthesis, and Activity Evaluation of Novel Bifenamide Dual-Target Antibacterial Inhibitors and Carrier Based on Infectious Microenvironment” (J Med Chem, 2025).
pIC50, pKd: −log10 of the molar value. Active and inactive are the calls of the source. No cut-off for these calls is given here.

Tests used:
[1] = system: Klebsiella pneumoniae; test: Antibacterial activity against Klebsiella pneumoniae ATCC 13883 infected in Kunming mouse model assessed as organised collagen fibers in skin tissue at 2 mg/kg, iv by Masson's trichome staining based analysis; assay type: functional, organism-based
[2] = system: Escherichia coli; test: Antimicrobial activity against Escherichia coli ATCC 8739 assessed as inhibition of microbial growth incubated for 64 hrs by broth-microdilution assay; assay type: functional
[3] = system: Pseudomonas aeruginosa; test: Antimicrobial activity against Pseudomonas aeruginosa ATCC 9027 assessed as inhibition of microbial growth incubated for 64 hrs by broth-microdilution assay; assay type: functional
[4] = system: Salmonella typhimurium; test: Antimicrobial activity against Salmonella typhimurium ATCC 14028 assessed as inhibition of microbial growth incubated for 64 hrs by broth-microdilution assay; assay type: functional, Salmonella enterica subsp. enterica serovar Typhimurium; details: Salmonella enterica
[5] = biological target: T1, UDP-3-O-acyl-N-acetylglucosamine deacetylase (Escherichia coli K-12, UniProt P0A725); test: Binding affinity to Escherichia coli LpxC assessed as dissociation constant by SPR analysis
T1 sequence (P0A725 whole entry): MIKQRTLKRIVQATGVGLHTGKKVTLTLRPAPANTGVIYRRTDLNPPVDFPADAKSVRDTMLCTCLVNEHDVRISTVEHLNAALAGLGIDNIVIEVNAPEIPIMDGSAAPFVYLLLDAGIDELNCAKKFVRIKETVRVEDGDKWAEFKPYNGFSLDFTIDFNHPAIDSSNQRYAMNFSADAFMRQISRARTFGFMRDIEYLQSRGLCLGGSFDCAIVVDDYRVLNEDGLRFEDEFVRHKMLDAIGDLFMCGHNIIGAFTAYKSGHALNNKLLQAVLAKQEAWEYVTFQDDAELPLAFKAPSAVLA

[6] = system: Klebsiella pneumoniae; test: Induction of morphological changes in Klebsiella pneumoniae ATCC 13883 assessed as reduction in cell wall thickness measured for 24 hrs by transmission electron microscopy analysis; assay type: functional, organism-based
[7] = system: Klebsiella pneumoniae; test: Downregulation of IL-2 expression in Klebsiella pneumoniae ATCC 13883 by immunohistochemistry analysis; assay type: functional
[8] = system: Klebsiella pneumoniae; test: Downregulation of IL-2 expression in Klebsiella pneumoniae ATCC 13883 by Western blot analysis; assay type: functional
[9] = system: Klebsiella pneumoniae; test: Induction of morphological changes in Klebsiella pneumoniae ATCC 13883 assessed as leakage in cellular contents measured for 48 hrs by transmission electron microscopy analysis; assay type: functional, organism-based
[10] = system: Klebsiella pneumoniae; test: Antimicrobial activity against Klebsiella pneumoniae ATCC 13883 assessed as increase in percentage of bacterial cells by flow cytometry analysis; assay type: functional, organism-based
[11] = Initial plasma concentration in rat at 2 mg/kg, iv measured upto 24 hrs by LC-MS/MS analysis; assay type: ADME, organism-based; details: plasma
[12] = Toxicity in Kunming mouse assessed as change in AST level at 2 mg/kg, iv (reference value: 91.5 +/- 7.2 IU/L); assay type: organism-based; details: in vivo
[13] = biological target: Programmed cell death protein 1/Programmed cell death 1 ligand 1 (Homo sapiens, UniProt Q9NZQ7); test: Inhibition of PD-1/PD-L1 (unknown origin) protein-protein interaction preincubated for 15 mins followed by PD-1-Eu addition and measured after 90 mins by TR-FRET assay; assay type: protein-complex assay
Chain of Programmed cell death protein 1/Programmed cell death 1 ligand 1 (Q15116 whole entry): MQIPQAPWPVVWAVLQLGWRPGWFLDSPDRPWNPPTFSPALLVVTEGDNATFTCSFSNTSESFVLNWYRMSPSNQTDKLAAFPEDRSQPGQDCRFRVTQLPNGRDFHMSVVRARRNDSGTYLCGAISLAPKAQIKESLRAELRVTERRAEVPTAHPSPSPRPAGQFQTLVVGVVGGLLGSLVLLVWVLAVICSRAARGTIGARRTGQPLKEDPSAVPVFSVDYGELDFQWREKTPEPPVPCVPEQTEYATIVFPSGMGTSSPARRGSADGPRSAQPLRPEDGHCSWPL
Chain of Programmed cell death protein 1/Programmed cell death 1 ligand 1 (Q9NZQ7 whole entry): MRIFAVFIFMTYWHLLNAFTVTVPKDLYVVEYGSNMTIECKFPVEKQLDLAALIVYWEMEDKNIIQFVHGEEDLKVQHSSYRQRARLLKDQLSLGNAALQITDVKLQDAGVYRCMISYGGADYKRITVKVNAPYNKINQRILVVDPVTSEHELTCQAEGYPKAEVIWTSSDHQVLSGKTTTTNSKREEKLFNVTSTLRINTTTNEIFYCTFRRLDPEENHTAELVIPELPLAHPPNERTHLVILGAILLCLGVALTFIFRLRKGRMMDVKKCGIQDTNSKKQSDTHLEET

[14] = Binding affinity to PD-L1 (unknown origin) assessed as dissociation constant by SPR analysis; parameters: species or system Homo sapiens
[15] = Toxicity in Kunming mouse assessed as lung damage at 2 mg/kg, iv by H and E staining based analysis; assay type: organism-based; details: in vivo
[16] = system: Klebsiella pneumoniae; test: Antibacterial activity against Klebsiella pneumoniae ATCC 13883 infected in Kunming mouse model assessed as reduction in bacterial proliferation at 2 mg/kg, iv; assay type: functional, organism-based
[17] = system: Pseudomonas aeruginosa; test: Antimicrobial activity against Pseudomonas aeruginosa ATCC 9027 assessed as inhibition zone; assay type: functional; details: time 64 hrs
[18] = system: Klebsiella pneumoniae; test: Downregulation of NF-kappaB expression in Klebsiella pneumoniae ATCC 13883 by Western blot analysis; assay type: functional
[19] = Toxicity in Kunming mouse assessed as body weight loss at 2 mg/kg, iv; assay type: organism-based; details: in vivo
[20] = system: Klebsiella pneumoniae; test: Downregulation of PD-L1 expression in Klebsiella pneumoniae ATCC 13883 by Western blot analysis; assay type: functional
[21] = AUC (0 to t) in rat at 2 mg/kg, iv measured upto 24 hrs by LC-MS/MS analysis; assay type: ADME, organism-based; details: in vivo
[22] = Clearance in rat at 2 mg/kg, iv measured upto 24 hrs by LC-MS/MS analysis; assay type: ADME, organism-based; details: in vivo
[23] = biological target: T1, UDP-3-O-acyl-N-acetylglucosamine deacetylase; test: Inhibition of Escherichia coli LpxC
[24] = system: Klebsiella pneumoniae; test: Downregulation of IFN-gamma expression in Klebsiella pneumoniae ATCC 13883 by Western blot analysis; assay type: functional
[25] = system: Klebsiella pneumoniae; test: Downregulation of PD-L1 expression in Klebsiella pneumoniae ATCC 13883 by immunohistochemistry analysis; assay type: functional
[26] = system: Klebsiella pneumoniae; test: Antimicrobial activity against Klebsiella pneumoniae ATCC 13883 assessed as inhibition zone; assay type: functional
[27] = Toxicity in Kunming mouse assessed as lung damage at 2 mg/kg, iv by masson staining based analysis; assay type: organism-based; details: in vivo
[28] = Toxicity in Kunming mouse assessed as change in BUN level at 2 mg/kg, iv (reference value: 11.2 +/- 2 mmol/L); assay type: organism-based; details: in vivo
[29] = system: Klebsiella pneumoniae; test: Downregulation of MMP9 expression in Klebsiella pneumoniae ATCC 13883 by Western blot analysis; assay type: functional
[30] = system: Klebsiella pneumoniae; test: Induction of intracellular ROS accumulation in Klebsiella pneumoniae ATCC 13883 incubated for 12 hrs by fluorescence microscopic analysis; assay type: functional, organism-based
[31] = system: Klebsiella pneumoniae; test: Antibacterial activity against Klebsiella pneumoniae ATCC 13883 infected in Kunming mouse model assessed as reduction in alveolar space in lung at 2 mg/kg, iv by H and E staining based analysis; assay type: functional, organism-based
[32] = Volume of distribution at steady state in rat at 2 mg/kg, iv measured upto 24 hrs by LC-MS/MS analysis; assay type: ADME, organism-based; details: in vivo, read-out: Vdss
[33] = Toxicity in Kunming mouse assessed as side effect at 2 mg/kg, iv; assay type: organism-based; details: in vivo
[34] = Half life in rat at 2 mg/kg, iv measured upto 24 hrs by LC-MS/MS analysis; assay type: ADME, organism-based; details: in vivo
[35] = system: Klebsiella pneumoniae; test: Bactericidal activity against Klebsiella pneumoniae ATCC 13883 assessed as reduction in survival rate by colony counting method; assay type: functional
[36] = system: Klebsiella pneumoniae; test: Downregulation of NLRP3 expression in Klebsiella pneumoniae ATCC 13883 by Western blot analysis; assay type: functional
[37] = system: Klebsiella pneumoniae; test: Downregulation of IFN-gamma expression in Klebsiella pneumoniae ATCC 13883 by immunohistochemistry analysis; assay type: functional
[38] = Toxicity in Kunming mouse assessed as change in CRE level at 2 mg/kg, iv (reference value: 16.7 +/- 1.6 micromol/L); assay type: organism-based; details: in vivo
[39] = system: Klebsiella pneumoniae; test: Induction of morphological changes in Klebsiella pneumoniae ATCC 13883 assessed as leakage in cellular contents measured for 96 hrs by transmission electron microscopy analysis; assay type: functional, organism-based
[40] = biological target: Programmed cell death 1 ligand 1 (Homo sapiens) (UniProt Q9NZQ7); test: Binding affinity to PD-L1 (unknown origin) assessed as Change in enthalpy by ITC analysis
Chain of Programmed cell death 1 ligand 1 (Homo sapiens) (Q9NZQ7 whole entry): as above

[41] = biological target: Programmed cell death 1 ligand 1 (Homo sapiens) (UniProt Q9NZQ7); test: Binding affinity to PD-L1 (unknown origin) assessed as association constant at equilibrium by ITC analysis
[42] = Toxicity in Kunming mouse assessed as change in ALT level at 2 mg/kg, iv (reference value: 54.8 +/- 5.2 IU/L); assay type: organism-based; details: in vivo
[43] = system: A549; test: Cytotoxicity against human A549 cells incubated for 24 hrs by CCK-8 assay; assay type: functional, cell-based; details: A549, 24 h
[44] = system: Klebsiella pneumoniae; test: Antibacterial activity against Klebsiella pneumoniae ATCC 13883 infected in Kunming mouse model measured after 8 hrs; assay type: functional, organism-based
[45] = system: Klebsiella pneumoniae; test: Antimicrobial activity against Klebsiella pneumoniae ATCC 13883 assessed as inhibition of microbial growth incubated for 64 hrs by broth-microdilution assay; assay type: functional
[46] = system: Klebsiella pneumoniae; test: Downregulation of PD-1 expression in Klebsiella pneumoniae ATCC 13883 by Western blot analysis; assay type: functional
[47] = system: Klebsiella pneumoniae; test: Induction of morphological changes in Klebsiella pneumoniae ATCC 13883 assessed as reduction in cell membrane thickness measured for 24 hrs by transmission electron microscopy analysis; assay type: functional, organism-based
[48] = system: HeLa; test: Cytotoxicity against human HeLa cells incubated for 24 hrs by CCK-8 assay; assay type: functional, cell-based

- MIC50 [2]: 0.5 µg/mL
- MIC50 [3]: 0.5 µg/mL
- MIC50 [4]: 0.5 µg/mL
- pKd [5]: 9.45
- C0 at 24 h [11]: 649 ng/mL
- pKd [14]: 9.28
- AUC(0-t) at 24 h [21]: 431 ng·h/mL
- clearance [22]: 63.7 mL/min/kg
- pIC50 [23]: 5.28
- Vd [32]: 5.71 L/kg
- half-life [34]: 2.39 h
- MIC50 [45]: 0.25 µg/mL
Structure (SMILES): Cc1c(COc2cccc(CNC(C(=O)NO)C(C)O)c2)cccc1-c1ccccc1 (stereo not drawn)
- Activity [1]: Active
- Activity [6]: Active
- Activity [7]: Active
- Activity [8]: Active
- Activity [9]: Active
- Activity [10]: Active
- Activity [12]: 104.2 IU/L
- pIC50 [13]: 7.09
- Activity [15]: Non-toxic
- Activity [16]: Active
- inhibition zone (IZ) [17]: 14.2 mm
- Activity [18]: Active
- Activity [19]: Non-toxic
- Activity [20]: Active
- Activity [24]: Active
- Activity [25]: Active
- inhibition zone (IZ) [26]: 14.7 mm
- Activity [27]: Non-toxic
- Activity [28]: 8.6 mmol/L
- Activity [29]: Active
- Activity [30]: Active
- Activity [31]: Active
- Activity [33]: Non-toxic
- Activity [35]: Active
- Activity [36]: Active
- Activity [37]: Active
- Activity [38]: 12.5 µmol/L
- Activity [39]: Active
- deltaH [40]: 1.79 kcal/mol
- Ka [41]: 6.04 10^5/M
- Activity [42]: 34.5 IU/L
- pIC50 [43]: < 4.30
- Activity [44]: Active
- Activity [46]: Active
- Activity [47]: Active
- pIC50 [48]: < 4.30
